Experimental data published in US20100004248A1, “Use of a Nitric Oxide Synthase Modulator for the Treatment of Cardiac Indications” (priority 2005, published 2010).

How the values were obtained:
Format in all cases: in vivo, mouse
reactive oxygen species = test: Reactive oxygen species generation in TAC myocardium (luminol, lucigenin, DHE, DCF); conditions: WT mice, TAC 3 weeks, oral co-treatment
Procedure: Reactive oxygen species generation was examined by several independent methods. Superoxide production in left ventricular tissue homogenates was determined by luminol-enhanced chemiluminescence (EMD Biosciences). Flash frozen myocardium was homogenized in iced PBS buffer, centrifuged, and the precipitate re-suspended in assay buffer to a final concentration of 100 μM luminol following manufacturer's instructions. Phorbol-12-myristate-13-acetate or other oxidase stimulators were not used in the assay. Data were normalized by sample weight. In addition, fresh frozen left ventricular myocardium (8 μm slices) was incubated for 1 hour at 37° C. with florescent dyes 2′,7′-dichlorodihydro-fluorescein diacetate (DCF; Molecular Probes; 4 μM) (Invitrogen Corp.) reflecting hydrogen peroxide formation (DCF staining localizes principally to mitochondria within myocytes), dihydroethidium (DHE; Molecular Probes; 2 μM) which assesses O2^− formation (typically nuclear localization), and nitrotyrosine formation (polyclonal nitrotyrosine Ab, 1:100; Upstate), which can reflect formation of ONOO^−. Imaging was performed on a Zeiss inverted epifluorescence microscope attached to an argon-krypton laser confocal scanning microscope (UltraVIEW, Perkin Elmer Life Sciences, Inc.). […] Nitrotyrosine was also quantitatively assessed by ELISA assay (Oxis International).

[1] = system: C57/BL6 WT mice subjected to TAC pressure overload; test: Body weight and heart weight in mice subjected to transverse aortic constriction (TAC); conditions: TAC 3 weeks, oral co-treatment 1 mg/g food, mean ± sem
From the text: Male NOS3 null mice (NOS3^−/−) and C57/BL6 WT controls (8-11 weeks, Jackson Labs, Bar Harbor, Me., USA) were used. Pressure overload was produced by transverse aorta constriction (TAC). Briefly, The aortic arch was isolated by entering the extrapleural space between the second and third rib, and afterwards the transverse aorta was isolated between the right and left carotid arteries. A 7-0 prolene suture ligature was tied around the transverse aorta against a 27-gauge needle to produce a 65-70% constriction after the removal of the needle. After closing the chest, animals were extubated, and a subcutaneous injection of morphine sulphate 0.2 mg, was administered before they returned to their cages. Animal's ventilatory and circulatory status was checked every 30 minutes during the first 2 hours. Sham-operated mice underwent the same operation except for aortic constriction. […] Animals were randomized to receive placebo or BH4 (120 mg/kg/d) for the next 5 weeks. At the end of the study, i.e. at 9 weeks, animal were sacrificed to receive tissue or underwent in vivo PV-loop analysis. […] Control mice were subject to sham operations, and animals were studied 3-9 weeks following surgery. […]

NOS = test: Calcium dependent NOS activity, arginine to citrulline conversion, in myocardial homogenates of TAC hearts; conditions: WT mice, TAC 3 weeks, oral co-treatment
Procedure: SDS-resistant NOS3 dimers and monomers were assayed using low-temperature SDS PAGE under reducing or non-reducing conditions, as described previously^7. NOS3 was immunoprecipitated as described^16 and the resulting samples added to fivefold Laemmli buffer (0.32 mol/l Tris-HCl, pH 6.8, 0.5 mol/l glycine, 10% SDS, 50% glycerol, and 0.03% bromophenol blue) in non-reducing gel (no 2-mercaptoethanol) to identify dimer dissociation due to reduced disulfide bridges. To provide fully denatured control lanes, samples were boiled for 15 minutes prior to loading. Electrophoresis was performed using Tris glycine 6% gels (Invitrogen Corp.), and gels and buffers maintained in an ice bath at 4° C. and stained (SimplyBlue, Invitrogen Corp.). Calcium dependent and independent NOS activity was determined from myocardial homogenates by [3H] L-arginine to [3H] citrulline conversion (Sigma-Aldrich) as described^16. An alternative approach involved more direct Western blot analysis without requiring initial NOS IP. Cold SDS-Page Western blot analysis was performed using a self-made […] SDS-Tris gel. After overnight running on ice, the gel was transferred for 3 h to nitrocellulose membrane. […] Bound antibodies were detected with horseradish peroxidase-conjugated anti-mouse IgG and visualize with an enhanced chemiluminescence detection system.

`Nc1nc2c(c(=O)[nH]1)NC(C(O)C(O)CO)CN2` (stereo not drawn) [H4N, tetrahydroneopterin] was tested, and the “reactive oxygen species generation (luminol chemiluminescence, DHE, DCF)” value (reactive oxygen species) was “None of these changes were observed”, the “Heart Weight (HW)” value [1] was 231.3 ± 10.7 mg and the “Ca^2+-dependent NOS activity” value (NOS) was “unaltered”.
